Source: patent US9056923B2, “Mimetic peptides derived from collagen type IV and their use for treating angiogenesis- and lymphagiogenesis-dependent diseases” (THE JOHNS HOPKINS UNIVERSITY, priority 2010, dated 2015)
Read-outs that look alike come from different tables or passages of the source. Square brackets hold non-standard residues; d marks the D form. Ends that are not written are not given here. Peptide text beside a SMILES is read from it. Abu = CC[C@H](N)C(=O)O

Experiments:
HUVEC [1] = type: cell-based, human; details: for IC50: 3 h; for Activity in Adhesion: Yes/No summary, active = inhibitory potential greater than 30%
Procedure, shortened: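 Adhesion of 25,000 cells per well, with or without peptide, followed by real-time electrical impedance on electrode plates over 3 hours. At least two independent replicates, each run in duplicate.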

HUVEC [2] = type: cell-based, human; details: for Activity in Proliferation: Yes/No summary
Procedure, shortened: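 HUVEC plated at 2000 cells/well overnight, then exposed to peptides in fully supplemented medium for three days. WST-1 added in serum-free EBM-2 for four hours and absorbance read at 450 nm. Percent live cells taken relative to untreated cells in complete medium with 0.2% DMSO.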

[3] = system: choroidal neovascularization; test: Laser-induced choroidal neovascularization model; type: in vivo, C57BL/6 mice; details: 0.1 μg into a mouse eye
Protocol: The ocular laser-induced choroidal neovascularization (NV) model of wet age-related macular degeneration was used for testing. 5-6-week-old female pathogen-free C57BL/6 mice were anesthetized with ketamine hydrochloride (100 mg/kg body weight) and pupils were dilated. Laser photocoagulation (75-μm spot size, 0.1-sec duration, 120 mW) was performed in the 9, 12, and 3 o'clock positions of the posterior pole of each eye with the slit lamp delivery system of an OcuLight GL diode laser (Iridex, Mountain View, Calif.) and a handheld cover slip as a contact lens to view the retina. Production of a tissue bubble by the laser, which indicates rupture of Bruch's membrane, is an important factor in obtaining choroidal NV; therefore, only burns in which a bubble is produced are included in the study. […] At day 7 the mice that received the naked peptides were dosed again whereas the mice that received the particles were administered PBS. Intravitreous injections were done under a dissecting microscope with a Harvard Pump Microinjection System and pulled glass micropipettes. After 14 days, the mice were perfused with 1 mL of PBS containing 50 mg/mL of fluorescein-labeled dextran (2×10^6 Daltons average molecular weight; Sigma-Aldrich, St. Louis, Mo.) and choroidal flat mounts were examined by fluorescence microscopy. Images were captured with a Nikon Digital Still Camera DXM1200 (Nikon Instruments Inc., New York, N.Y.). Image analysis software (Image-Pro Plus; Media Cybernetics, Silver Spring, Md.) was used to measure the total area of choroidal NV at each rupture site with the investigator masked with respect to treatment group.

HUVEC [4] = test: HUVEC migration assay (RT-CIM); type: cell-based, human; details: for Activity in Migration: Yes/No summary, active = inhibitory potential greater than 30%
Procedure, shortened: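 Real-time impedance (RT-CIM) transwell migration through fibronectin-coated (20 μg/mL) 8 μm membranes; 45,000 cells/well in serum-free medium ± peptides, fully supplemented EBM-2 as chemoattractant below. Cell index recorded over 20 h at 37 °C; ≥2 independent replicates, each in duplicate.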

[5] = system: VEGF mediated retinal neovascularization; test: Rho/VEGF transgenic mice model of retinal neovascularization; type: in vivo; details: for area of retinal neovascularization in the Rho/VEGF model: 0.1 μg into a mouse eye
Protocol: The ocular Rho/VEGF transgenic mice model of wet age-related macular degeneration also was used to test some of the peptides. Transgenic mice in which the rhodopsin promoter drives expression of VEGF in photoreceptors have the onset of VEGF production at P7 and develop extensive NV along the outer surface of the retina by P21 (Okamoto et al., 1997; To be et al., 1998). Mice hemizygous for the transgene (n=15 for each dose) were given an intraocular injection of 1 μl of PBS containing 0.01, 0.1, or 1 μg of peptide or scramble peptide in one eye at P7 and P14 and at P21 the mice were anesthetized, perfused with fluorescein-labeled dextran, and the total area of neovascularization on the outer surface of the retina was measured on retinal flat mounts by image analysis as above.

HUVEC [6] = test: HUVEC tube formation assay on Matrigel; type: cell-based, human; details: for Activity in Tube formation: Yes/No summary
Procedure, shortened: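 HUVEC (15,000/well) plated on polymerized Matrigel in complete media with or without peptide for 19 h at 37 °C. Tube networks imaged by microscopy, one random field per well, in triplicate wells across at least two independent experiments.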

[7] = system: microvascular endothelial cells (MEC); test: MEC adhesion assay; type: cell-based
Protocol: (§1) Similar to the migration assays, the inhibition activity of the peptide in cellular adhesion was assessed using the RT-CIM technology. In this case, 25,000 cells/well were plated in 16 wells E-plates (Roche, Basel Switzerland) in the presence or absence of the peptide. The adhesion was monitored over time (3 hours) by measuring changes in the electrical impedance, which is a direct measure of the cells adhering on the electrodes. […] Assays were performed in at least two independent replicates and each replicate was performed using two experimental duplicates.

MDA-MB-231 xenograft = test: MDA-MB-231 orthotopic breast tumor xenograft; type: in vivo, SCID mice
Protocol: For primary tumor inhibition studies, 1−2×10^6 tumor cells were injected into 4-6 wk old female SCID mice. After the tumors reached a size of 100 mm^3 the animals were randomized into groups of 10 animals each. The animals were treated with vehicle, SP2012, SP2000, or SP2024. The peptides were administered subcutaneously daily. Dosing was continued for 3 or 4 weeks and tumor sizes were measured every 3 days using calipers. The tumor volume was estimated using the formula V=a^2b/2 where a and b are the smaller and larger diameters.
For the tumor xenograft assay, animals were housed and treated according to the approved animal protocol of the Institutional Care and Use Committee at Johns Hopkins Medical Institution (JHMI). Orthotopic breast tumors were initiated in SCID mice using MDA-MB-231 cells. 2×10^6 cells per 100 μL aliquot of single cell suspension were injected in the breast mannary fat pad. Tumors reached volumes of 75 mm^3 to 100 mm^3 in approximately 14-21 days. Mice were randomized and arranged in groups (8 mice per group) with similar tumor volumes (no statistical difference among averages) and treatment was commenced. Peptides were administered once per day intraperitoneally (i.p.) at doses of 10 mg/kg (subcutaneous delivery was also tested with certain peptides). Paclitaxel was administered at 5 mg/kg once a week, and to maintain the daily treatment regime PBS was administered on the non-treatment days. Tumors were measured every fourth day using calipers and the tumor volume was calculated using the formula V=ab^2/2, where a is the larger diameter and b is the smaller diameter.

[8] = system: microvascular endothelial cells (MEC); test: MEC migration assay; type: cell-based
Protocol: (§2) The inhibitory potential of the peptides was measured using a real time migration assay system based on electrical impedance (RT-CIM, ACEA Biosciences, CA). CIM 16 well plates (Roche, 05665817001) are composed of a top and bottom chamber separated by a microporous (8 μm) polycarbonate membrane. The membrane was coated with fibronectin (20 μg/mL), and 45,000 cells/well in serum free media with or without peptides were added to the top compartment. Media with chemoattractant (i.e., fully supplemented EBM-2) was added to the bottom compartment of the chamber and the plate was incubated at 37° C. for 20 hours. The sensors integrated on the bottom side of the membrane monitor and continuously record changes in impedance as the cells move through the membrane. The RT-CIM technology allows for easy quantification of cell migration by monitoring the cell index derived from the measured impedances. Assays were performed in at least two independent replicates and each replicate was performed using two experimental duplicates.

[9] = system: lymphatic endothelial cells (LEC); test: LEC adhesion assay; type: cell-based
Protocol: as §1

[10] = system: lymphatic endothelial cells (LEC); test: LEC migration assay; type: cell-based
Protocol: as §2

[11] = system: MDA-MB-231 breast cancer cells; test: MDA-MB-231 wound healing type migration assay (Oris Pro); type: cell-based
Protocol: Breast cancer cells MDA-MB-231 are not suitable for the RT-CIM type experiments due to their thin elongated phenotype, thus the inhibition of migration was investigated using a wound healing type assay. This assay was performed using the Oris Pro Migration assay (Platypus Technologies, CMA 1.101). Briefly, 20,000-25,000 cells/well in full media were added to the 96 well plate containing stoppers to block migration of cells to the center region of the wells. Cells were allowed to adhere for 4 hours, after which the stoppers were removed. Cells were washed one time with PBS and fully supplemented media, with or without compound, was added to the wells. […], cells were stained with calcein AM (0.5 μg/mL) (Invitrogen, CA) and the cells that migrated to the center of the well were quantified by fluorescence intensity measured using a Victor V plate reader (Perkin Elmer) and also imaged using a Leica or Nikon microscope.

[12] = system: MDA-MB-231 breast cancer cells; test: MDA-MB-231 adhesion assay; type: cell-based
Protocol: as §1

[13] = HUVEC, tables 5, 8-10 and text, read-out: IC50 ± 95% CI (μM), proliferation

Compound | IC50 (HUVEC [1]) [µM] | Activity in Adhesion (HUVEC [1]; HUVEC) | Activity in Proliferation (HUVEC [2]; HUVEC) | IC50 (HUVEC [2]; [13]) [µM] | laser-induced choroidal neovascularization [3] | Activity in Migration (HUVEC [4]) | area of retinal neovascularization in the Rho/VEGF model [5] | Activity in Tube formation (HUVEC [6]) | IC50 (HUVEC [2]) [µM] | other results
CC[C@H](C)[C@H](NC(=O)[C@H](CC(N)=O)NC(=O)[C@@H](NC(=O)[C@H](Cc1ccccc1)NC(=O)[C@@H](C)NC(=O)[C@H](Cc1ccccc1)NC(=O)[C@@H]1CCCN1C(=O)[C@H](CCSC)NC(=O)[C@@H](NC(=O)[C@H](CO)NC(=O)[C@H](Cc1ccccc1)NC(=O)[C@H](CCCNC(=N)N)NC(=O)[C@H](CCCNC(=N)N)NC(=O)[C@@H](N)CC(C)C)[C@@H](C)O)[C@@H](C)CC)C(=O)N[C@@H](CC(N)=O)C(=O)N[C@@H](CC(N)=O)C(=O)N[C@H](C(=O)N[C@H](C(=O)N[C@@H](CC(N)=O)C(=O)N[C@@H](Cc1ccccc1)C(N)=O)[C@@H](C)CC)C(C)C [SP2034, LRRFSTMPFdAFININNVINF] | 0.55 ± 0.37 | Yes | Yes | 0.54 ± 0.19 | inhibited laser-induced choroidal neovascularization | Yes | inhibited | Yes |  | inhibition of proliferation (HUVEC [2]; HUVEC): improved by two orders of magnitude
CC[C@H](NC(=O)[C@H](Cc1ccccc1)NC(=O)[C@H](CCSC)NC(=O)[C@H](Cc1ccccc1)NC(=O)[C@@H]1CCCN1C(=O)[C@H](CCSC)NC(=O)[C@@H](NC(=O)[C@H](CO)NC(=O)[C@H](Cc1ccccc1)NC(=O)[C@H](CCCNC(=N)N)NC(=O)[C@H](CCCNC(=N)N)NC(=O)[C@@H](N)CC(C)C)[C@@H](C)O)C(=O)N[C@@H](CC(N)=O)C(=O)N[C@H](C(=O)N[C@@H](CC(N)=O)C(=O)N[C@@H](CC(N)=O)C(=O)N[C@H](C(=O)N[C@@H](CC)C(=O)N[C@@H](CC(N)=O)C(=O)N[C@@H](Cc1ccccc1)C(N)=O)C(C)C)[C@@H](C)CC [SP2012, LRRFSTMPFMFAbuNINNVAbuNF] (H-LRRFSTMPFMF[Abu]NINNV[Abu]NF-NH2; N-terminus assumed) |  | Yes | Yes | 48.1 ± 23.1 |  | Yes |  | Yes | 22 | Adhesion Inhibition (100 uM) (HUVEC [1]; HUVEC, 100 uM peptide): 93.14%; inhibition of adhesion of MEC [7]: quite active; suppression of tumor growth (MDA-MB-231 xenograft; MDA-MB-231 xenograft in mice, 10 mg/kg daily): tumor growth was inhibited; microvascular density (MDA-MB-231 xenograft; after completion of the treatment at 21 days): statistically different from one another; MDA-MB-231 xenograft inhibition (MDA-MB-231 xenograft; mice): Active; inhibition of migration of MEC [8]: quite active; inhibition of adhesion of LEC [9]: strong; Migration Inhibition (5 uM) (HUVEC [4]; 5 uM peptide): 0% (5 uM); Migration Inhibition (50 uM) (HUVEC [4]; 50 uM peptide): 68%; inhibition of migration of LEC [10]: strong; inhibition of migration of MDA-MB-231 cells [11]: strong; Migration of MDA-MB-231 cells into the restricted area ([11]; 50 μM and 5 μM treatments, 17 hours of incubation): statistically significant versus the control; Tube formation Inhibition (HUVEC [6]; (l0 uM) printed in the cell): Complete; inhibition of adhesion of MDA-MB-231 cells [12]: strong
CC[C@H](C)[C@H](NC(=O)[C@H](CC(N)=O)NC(=O)[C@@H](NC(=O)[C@H](Cc1ccccc1)NC(=O)[C@H](C)NC(=O)[C@H](Cc1ccccc1)NC(=O)[C@@H]1CCCN1C(=O)[C@H](CCSC)NC(=O)[C@@H](NC(=O)[C@H](CO)NC(=O)[C@H](Cc1ccccc1)NC(=O)[C@H](CCCNC(=N)N)NC(=O)[C@H](CCCNC(=N)N)NC(=O)[C@@H](N)CC(C)C)[C@@H](C)O)[C@@H](C)CC)C(=O)N[C@@H](CC(N)=O)C(=O)N[C@@H](CC(N)=O)C(=O)N[C@H](C(=O)N[C@H](C(=O)N[C@@H](CC(N)=O)C(=O)N[C@@H](Cc1ccccc1)C(N)=O)[C@@H](C)CC)C(C)C [SP2035] | 2.51 ± 0.88 | Yes | Yes |  | inhibited laser-induced choroidal neovascularization | Yes | inhibited | Yes |  | 
LRRFSTAPFAFININNVINF-NH2 [SP2036] | 2.75 ± 1.22 | Yes | Yes |  | inhibited laser-induced choroidal neovascularization | Yes | inhibited | Yes | 9.97 ± 8.3 | loss of activity in proliferation compared to substitution of Methionine at position 10 (HUVEC [2]; HUVEC): 10 fold; inhibition of VEGF mediated angiogenesis ([5]; 0.1 μg administered directly into the eye): about 70%
